Earlier results on two substances are cited in article PMC7465391, “1,4-Disubstituted 1,2,3-Triazoles as Amide Bond Surrogates for the Stabilisation of Linear Peptides with Biological Activity” (Molecules, 2020).

Series [1] addresses cathepsin K. The text has this: (§1) Table 7 Sequences of CatS1–2 and CatK1–2 and their reported biological properties. | column: Ki for CatK, pH 5.5 [nM] ^b || The Lalmanach group explored the stabilisation of peptidic inhibitors for cathepsin K and S [99]. These two proteins are cysteine proteases normally present in lysosomes and share a high homology. When found in the extracellular matrix, these enzymes are often overexpressed and dysregulated, making them innovative targets for new therapies for a range of medical conditions. Cathepsin K is considered as a target involved in osteoporosis whereas cathepsin S has been identified to play a role in autoimmune diseases and neuropathic pain [100, 101]. One strategy to identify inhibitors for prot ... || Another set of investigated peptidomimetics was based on a bradykinin-derived substrate, previously reported to be degraded by cathepsin K [103].

In series [2] the target is cathepsin L.
Source text: as §1, with “CatL,” for “CatK,”

Read-outs that look alike come from different tables or passages of the source.

Regarding “Ac-Gly-Arg-Trp-His-Pro-Met-GlyΨ[Tz]Ala-Pro-Trp-Glu-D-Ala-D-Arg-NH2 [CatS1]”, the Ki in series [1] (pH 5.5, 37 °C, substrate Z-Phe-Arg-AMC, mean ± SEM of three experiments, read-out: Ki for CatK, pH 5.5) was 10 µM; in series [2] (reversible inhibition, read-out: Ki cathepsin L), 30 µM.
In the case of “Abz-Arg-Pro-Pro-GlyΨ[Tz]Phe-Ser-Pro-Phe-Arg-Tyr(3-NO2)-NH2 [CatK1, triazolo-peptidomimetic of a bradykinin-derived cathepsin K substrate]”, the Ki in series [1] (reversible inhibition, read-out: Ki cathepsin K) was 0.8 µM; in series [2] (pH 5.5, 37 °C, substrate Z-Phe-Arg-AMC, mean ± SEM of three experiments, read-out: Ki for CatL, pH 5.5) it was 22 µM.
